The pIC50 is −log10 of the IC50, conventionally taken in molar units.

Here are results for 16 compounds from patent publication US20260042772A1, “FURO PYRIMIDINE DERIVATES” (Merck Patent GmbH, priority 2022, published 2026).

pIC50: −log10 of the molar value. Where two headings read alike, the source gives them in different places.

Experiment [1] deals with sensitive (NF54) strains of P. falciparum. Put plainly: In vitro P. falciparum assay, modified [3H]hypoxanthine incorporation assay. The class given is cell-based. The following applies: Plasmodium falciparum, NF54 strain. An excerpt:
Compounds according to the present invention were screened against sensitive (NF54) strains of P. falciparum in vitro using the modified [3H]hypoxanthine incorporation assay. (Vennerstrom, J. L.; Arbe-Barnes, S.; Brun, R.; Charman, S. A.; Chiu, F. C. K.; Chollet, J.; Dong, Y.; Dorn, A.; Hunziker, D.; Matile, H.; McIntosh, K.; Padmanilayam, M.; Tomas, J. S.; Scheurer, C.; Scorneaux, B.; Tang, Y.; Urwyler, H.; Wittlin, S. and Charman, W. N. Identification of an Antimalarial Synthetic Trioxolane Drug Development Candidate. Nature, 2004, 430, 900-904.).
Compound concentrations at which growth of P. falciparum was inhibited by 50% compared to untreated controls was measured in nM (IC50).
Compound concentrations at which growth of P. falciparum was inhibited by 50% compared to untreated controls was measured in nM (IC50) as described above (PfNF54 IC50 (nM)).

The target in a further experiment is human PI4Kβ (HuPI4Kβ) (Homo sapiens (Human), UniProt Q9UBF8). Put plainly: HuPI4Kβ lipid kinase inhibition, ADP-Glo Kinase Assay. The class given is biochemical. The following applies: recombinant enzyme. Here is the method:
To further test the impact of compounds according to the present invention on human PI4Kβ, HuP[…]β inhibition was tested for selected compounds and contrasted with the results for inhibiting PfNF54 strains as described in the example above. The lipid kinase reaction is performed by incubating lipid substrate (PI:3PS or PIP2:3PS) with a recombinant enzyme and ATP, and the kinase activity is measured using the ADP-GloTM Kinase Assay. First, the kinase reaction is terminated, and any ATP remaining after the reaction is depleted, leaving only ADP. Then the Kinase Detection Reagent is added to convert ADP to ATP, which is used in a coupled luciferin/luciferase reaction. The luminescent output is measured and is correlated with kinase activity. The assays can be performed in 96- or 384-well plates and can be used for enzyme characterization, inhibitor screening or compound profiling. Results measuring the effect of compounds on HuP[…]β are reported in table 2 in nM (IC50) describing the concentration necessary to inhibit 50% of the enzyme's activity (HuP[…]β IC50 (nM)).
Background: In ADP-Glo the light output rises with the ADP produced.

Experiment [2] has as its system chloroquine sensitive (CQS) strain (NF54) of P. falciparum. Put plainly: In vitro antiplasmodial activity, Assay A (parasite lactate dehydrogenase assay). The class given is cell-based. As to conditions: Plasmodium falciparum. The method, then:
Test samples were screened for in vitro antiplasmodial activity against a chloroquine sensitive (CQS) strain (NF54) of the malaria parasite P. falciparum. Continuous in vitro cultures of asexual erythrocyte stages of P. falciparum were maintained using a modified version of the method of Trager and Jensen (1976).1 Quantitative assessment of antiplasmodial activity in vitro was determined via the parasite lactate dehydrogenase assay using a modified method described by Makler (1993). The test samples were tested in triplicate on two separate occasions. Further dilutions were prepared in complete medium on the day of the experiment. Samples were tested as a suspension if not completely dissolved. Chloroquine and artesunate were used as the reference drugs. A full dose-response were performed starting at a concentration of 3000 nM, which is then serially diluted 2-fold in complete medium to give 10 concentrations; with the lowest concentration being approximately 6 nM. The same dilution techniques were used for all samples. References were tested at a starting concentration of 1000 ng/mL. The highest concentration of solvent to which the parasites were exposed has no measurable effect on the parasite viability (data not shown).

Experiment [3] relates to CQC sensitive strain (NF54) of P. falciparum. Put plainly: In vitro antiplasmodial activity, Assay B (as described by Vennerstrom et al. 2004). The format is cell-based. As to conditions: Plasmodium falciparum; NF54, Vennerstrom et al. method. Here is the method:
Compounds were screened against CQC sensitive strain (NF54) of P. falciparum in vitro as described by Vennerstrom et al. (2004). A full dose-response were performed starting at a concentration of 3000 nM, which is then serially diluted 2-fold in complete medium to give 10 concentrations; with the lowest concentration being approximately 6 nM. The same dilution techniques were used for all samples. References were tested at a starting concentration of 1000 ng/mL. The highest concentration of solvent to which the parasites were exposed has no measurable effect on the parasite viability (data not shown).

In experiment [4] the test system is P. vivax liver-stage hypnozoites. Put plainly: In vitro P. vivax liver-stage assay in primary human hepatocytes, radical cure mode: hypnozoites. The class given is cell-based. The following applies: Plasmodium vivax, Hepatocyte, infected primary human hepatocytes, read-out: Pv Hypnozoite IC50. The method, then: (§1) Compound efficacy against P. vivax liver-stage schizonts and hypnozoites is evaluated in infected primary human hepatocytes (PHHs). Compound screening is performed in 384-well plates, in a 12-point dose response, from 50 μM. All compounds are tested in radical cure mode (RCM). PHHs are seeded onto 384-well plates two days prior to P. vivax sporozoite infection. In RCM, compounds are added to the culture for three days, from day 5 post infection, in duplicate wells. Nigericin and a PI4K inhibitor (KDU691) are used as positive controls in each assay, while solvent (DMSO) without added compound serves as a negative control. Daily medium changes are performed, and the culture is fixed on day twelve post infection to ensure complete parasite clearance. Fixed cells are permeabilized and stained with an anti-UIS4 primary antibody and a fluorescent secondary antibody. Liver-stage schizonts and hypnozoites are then quantified by High Content Imaging. Roth, A., et al. A comprehensive model for assessment of liver stage therapies targeting Plasmodium vivax and Plasmodium falciparum. Nat. Commun. 2018, 9(1), 1837. doi.org/10.1038/s41467-018-04221-9.

Experiment [5] has as its system P. vivax liver-stage schizonts. Put plainly: In vitro P. vivax liver-stage assay in primary human hepatocytes, radical cure mode: schizonts. The class given is cell-based. The following applies: Plasmodium vivax, Hepatocyte, infected primary human hepatocytes, read-out: Pv Schizont IC50. The method, then:
as §1

Setting [6] is: growth inhibition, Table 2, read-out: PfNF54 IC50.
[7] abbreviates: [3H]hypoxanthine incorporation, read-out: In vitro P. falciparum growth inhibition IC50.

Sequence of human PI4Kβ (HuPI4Kβ) (Q9UBF8 whole entry): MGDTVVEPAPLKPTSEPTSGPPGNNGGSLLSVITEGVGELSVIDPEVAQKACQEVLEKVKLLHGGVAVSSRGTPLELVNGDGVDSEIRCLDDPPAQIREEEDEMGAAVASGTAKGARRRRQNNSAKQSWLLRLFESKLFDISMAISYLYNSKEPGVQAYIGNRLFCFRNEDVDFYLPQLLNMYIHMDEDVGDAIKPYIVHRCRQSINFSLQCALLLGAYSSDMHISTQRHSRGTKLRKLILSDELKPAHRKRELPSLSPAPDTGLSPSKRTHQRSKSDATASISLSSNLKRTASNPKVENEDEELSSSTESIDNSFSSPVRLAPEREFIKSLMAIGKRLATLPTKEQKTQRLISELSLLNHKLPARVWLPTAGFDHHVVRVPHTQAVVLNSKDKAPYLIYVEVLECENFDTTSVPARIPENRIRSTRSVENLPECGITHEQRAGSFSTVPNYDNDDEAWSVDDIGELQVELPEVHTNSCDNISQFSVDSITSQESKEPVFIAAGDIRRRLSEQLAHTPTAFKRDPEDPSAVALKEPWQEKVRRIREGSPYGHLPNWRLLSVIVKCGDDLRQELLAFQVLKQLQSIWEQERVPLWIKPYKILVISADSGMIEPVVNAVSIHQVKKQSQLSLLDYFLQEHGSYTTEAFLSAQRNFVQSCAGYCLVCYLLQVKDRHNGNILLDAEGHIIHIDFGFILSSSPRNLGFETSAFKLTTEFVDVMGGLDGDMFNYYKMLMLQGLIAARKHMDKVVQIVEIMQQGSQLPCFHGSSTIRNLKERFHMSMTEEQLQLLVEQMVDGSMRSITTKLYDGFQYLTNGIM

Turning to `C[C@@H]1COCCN1C(=O)c1ccc(-c2cc3ncnc(-c4ccnc(C(C)(C)O)c4)c3o2)cc1` [Compound C75, (4-{4-[2-(1-Hydroxy-1-methyl-ethyl)-pyridin-4-yl]-furo[3,2-d]pyrimidin-6-yl}-phenyl)-((R)-3-methyl-morpholin-4-yl)-methanone], the values for the pIC50 (in experiment [1] (setting [6]); on human PI4Kβ (HuPI4Kβ)) were over 8.00 and under 6.30, respectively.

On to `CC(C)(O)c1cccc(-c2ncnc3cc(-c4ccc(C(=O)O)cc4)oc23)c1F` [Compound D201, 4-(4-(2-fluoro-3-(2-hydroxypropan-2-yl)phenyl)furo[3,2-d]pyrimidin-6-yl)benzoic acid], for which the negative-log IC50 (pIC50) in experiment [2] is 7.30 to 7.82; in experiment [3], 7.30 to 7.82; in experiment [4], 7.30 to 7.82; in experiment [5], over 7.82.

For `CN1CCN(C(=O)c2ccc(-c3cc4ncnc(-c5ccnc(C(C)(C)O)c5)c4o3)cc2)CC1` [Compound C77, 2-(4-{6-[4-(4-methylpiperazine-1-carbonyl)phenyl]furo[3,2-d]pyrimidin-4-yl}pyridin-2-yl)propan-2-ol], the negative logarithm of the IC50 (pIC50) in experiment [1] (setting [6]) was 7.30 to 8.00; on human PI4Kβ (HuPI4Kβ) it was under 6.30.

Turning to `CC(C)(O)c1cccc(-c2ncnc3cc(-c4ccc([S@@](C)(=N)=O)cc4)oc23)c1F` [Compound D209, (S)-(4-(4-(2-fluoro-3-(2-hydroxypropan-2-yl)phenyl)furo[3,2-d]pyrimidin-6-yl)phenyl)(imino)(methyl)-λ^6-sulfanone], the negative logarithm of the IC50 (pIC50) was over 8.00 in experiment [1] (setting [7]) and over 7.82 in experiment [2].

With `C[C@@H]1CN(C(=O)c2ccc(-c3cc4ncnc(-c5ccnc(C(C)(C)O)c5)c4o3)cc2)C[C@H](C)O1` [Compound C76, 2-[4-(6-{4-[(2R,6S)-2,6-dimethylmorpholine-4-carbonyl]phenyl}furo[3,2-d]pyrimidin-4-yl)pyridin-2-yl]propan-2-ol], the results for the negative logarithm of the IC50 (pIC50) (in experiment [1] (setting [6]); at human PI4Kβ (HuPI4Kβ)) were over 8.00 and under 6.30, respectively.

On to `CN1CCN(C(=O)c2ccc(-c3cc4ncnc(-c5cccc(C(C)(C)O)c5F)c4o3)cc2)CC1` [Compound D204, (4-(4-(2-fluoro-3-(2-hydroxypropan-2-yl)phenyl)furo[3,2-d]pyrimidin-6-yl)phenyl)(4-methylpiperazin-1-yl)methanone], for which the pIC50 in experiment [1] (setting [7]) is over 8.00; in experiment [3] it was over 7.82.

On to `CC(C)(O)c1cc(-c2ncnc3cc(-c4ccc(C(=O)N5CCOCC5)cc4)oc23)ccn1` [Compound C74, (4-{4-[2-(1-Hydroxy-1-methyl-ethyl)-pyridin-4-yl]-furo[3,2-d]pyrimidin-6-yl}-phenyl)-morpholin-4-yl-methanone], for which the negative logarithm of the IC50 (pIC50) is 7.30 to 8.00 in experiment [1] (setting [6]) and under 6.30 at human PI4Kβ (HuPI4Kβ).

For the compound `CC(C)(O)c1cccc(-c2ncnc3cc(-c4ccc(S5(=O)=NCCC5)cc4)oc23)c1F` (centres unmarked) [Compound D212, 1-(4-(4-(2-fluoro-3-(2-hydroxypropan-2-yl)phenyl)furo[3,2-d]pyrimidin-6-yl)phenyl)-4,5-dihydro-3H-isothiazole 1-oxide], the pIC50 is over 8.00 in experiment [1] (setting [7]) and over 7.82 in experiment [2].

`CC(C)(O)c1cc(-c2ncnc3cc(-c4ccc(S(C)(=O)=O)cc4)oc23)ccn1` [Compound D213, 2-(4-(6-(4-(methylsulfonyl)phenyl)furo [3,2-d]pyrimidin-4-yl)pyridin-2-yl)propan-2-ol]: the pIC50 in experiment [1] (setting [7]) is 7.30 to 8.00; in experiment [4] it was under 7.30; in experiment [5], over 7.82.

As for `CC(C)(O)c1cccc(-c2ncnc3cc(-c4ccc([S@](C)(=N)=O)cc4)oc23)c1F` [Compound D210, (R)-(4-(4-(2-fluoro-3-(2-hydroxypropan-2-yl)phenyl)furo[3,2-d]pyrimidin-6-yl)phenyl)(imino)(methyl)-λ^6-sulfanone], the negative logarithm of the IC50 (pIC50) was over 8.00 in experiment [1] (setting [7]) and over 7.82 in experiment [2].

For the compound `CC(C)(O)c1cc(-c2ncnc3cc(-c4ccc(S(C)(=O)=O)cc4)oc23)cc(F)n1` [Compound D150, 2-(6-fluoro-4-(6-(4-(methylsulfonyl)phenyl)furo [3,2-d]pyrimidin-4-yl)pyridin-2-yl)propan-2-ol], the pIC50 in experiment [1] (setting [7]) was 7.30 to 8.00; in experiment [2] it was under 7.30; in experiment [3], 7.30 to 7.82.

Take `CC(C)(O)c1cccc(-c2ncnc3cc(-c4ccc(C(=O)N5C[C@@H]6C[C@H]5CO6)cc4)oc23)c1F` [Compound D197, ((1S,4S)-2-oxa-5-azabicyclo[2.2.1]heptan-5-yl)(4-(4-(2-fluoro-3-(2-hydroxypropan-2-yl)phenyl)furo[3,2-d]pyrimidin-6-yl)phenyl)methanone]: the pIC50 in experiment [1] (setting [7]) was over 8.00; in experiment [1] (setting [6]) it was over 8.00; at human PI4Kβ (HuPI4Kβ) it was 6.30 to 7.00; in experiment [2] it was over 7.82; in experiment [3], over 7.82.

Regarding `C[C@H]1CN(C(=O)c2ccc(-c3cc4ncnc(-c5cccc(C(C)(C)O)c5F)c4o3)cc2)CCO1` [Compound D191, (S)-(4-(4-(2-fluoro-3-(2-hydroxypropan-2-yl)phenyl)furo[3,2-d]pyrimidin-6-yl)phenyl)(2-methylmorpholino) methanone], the negative logarithm of the IC50 (pIC50) in experiment [2] and in experiment [3] was over 7.82 each time.

Consider `C[C@H]1COCCN1C(=O)c1ccc(-c2cc3ncnc(-c4ccnc(C(C)(C)O)c4)c3o2)cc1` [Compound D159, (S)-(4-(4-(2-(2-hydroxypropan-2-yl)pyridin-4-yl)furo[3,2-d]pyrimidin-6-yl)phenyl)(3-methylmorpholino) methanone], for which the negative-log IC50 (pIC50) in experiment [2] is 7.30 to 7.82; in experiment [3], over 7.82.

As to `CC(C)(O)c1cccc(-c2ncnc3cc(-c4ccc(S5(=O)=NCCCC5)cc4)oc23)c1F` (centres unmarked) [Compound D211, 1-(4-(4-(2-fluoro-3-(2-hydroxypropan-2-yl)phenyl)furo[3,2-d]pyrimidin-6-yl)phenyl)-3,4,5,6-tetrahydro-1,2-thiazine 1-oxide], in experiment [1] (setting [7]), the pIC50 is over 8.00.

For `CC(C)(O)c1cc(-c2ncnc3cc(-c4ccc(C5(C(=O)N6C[C@@H]7C[C@H]6CO7)CC5)cc4)oc23)ccn1` [Compound P23, ((1S,4S)-2-oxa-5-azabicyclo[2.2.1]heptan-5-yl)(1-(4-(4-(2-(2-hydroxypropan-2-yl)pyridin-4-yl)furo[3,2-d]pyrimidin-6-yl)phenyl)cyclopropyl) methanone], the pIC50 in experiment [2] and in experiment [3] was under 7.30 in each case.
